# “And” between values parts separate entries of the source, which are not always exact repeats. Identical values can stand only once.
# Tested on: 324938-238-R-J1-PDC complex spheroid growth, % test/control
# Test: Anticancer human tumor 324938-238-R-J1-PDC patient-derived bladder carcinoma cell line growth inhibition [AhR]
# Conditions: for IC50: curve of first compound; for viability, T/C: stronger effect = lower value
# Outline: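 Spheroids combined tumor cells with HUVEC endothelial cells and human MSCs as stroma. AhR antagonists were paired with standard or investigational drugs, each dosed in half-log steps down from near clinical Cmax, or from 10 microM where Cmax was unknown.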
# [1] = second compound 0.1 µM, first compound 0.0316 µM
# [2] = second compound 0.1 µM, first compound 0.1 µM
# [3] = second compound 0.1 µM, first compound 0.316 µM
# [4] = second compound 0.1 µM, first compound 1 µM
# [5] = second compound 0.1 µM, first compound 3.16 µM
# [6] = second compound 0.1 µM, first compound 10 µM
# [7] = second compound 0.316 µM, first compound 0.0316 µM
# [8] = second compound 0.316 µM, first compound 0.1 µM
# [9] = second compound 0.316 µM, first compound 0.316 µM
# [10] = second compound 0.316 µM, first compound 1 µM
# [11] = second compound 0.316 µM, first compound 3.16 µM
# [12] = second compound 0.316 µM, first compound 10 µM
# [13] = second compound 1 µM, first compound 0.0316 µM
# [14] = second compound 1 µM, first compound 0.1 µM
# [15] = second compound 1 µM, first compound 0.316 µM
# [16] = second compound 1 µM, first compound 1 µM
# [17] = second compound 1 µM, first compound 3.16 µM
# [18] = second compound 1 µM, first compound 10 µM
# [19] = second compound 3.16 µM, first compound 0.0316 µM
# [20] = second compound 3.16 µM, first compound 0.1 µM
# [21] = second compound 3.16 µM, first compound 0.316 µM
# [22] = second compound 3.16 µM, first compound 1 µM
# [23] = second compound 3.16 µM, first compound 3.16 µM
# [24] = second compound 3.16 µM, first compound 10 µM
# [25] = second compound 10 µM, first compound 0.0316 µM
# [26] = second compound 10 µM, first compound 0.1 µM
# [27] = second compound 10 µM, first compound 0.316 µM
# [28] = second compound 10 µM, first compound 1 µM
# [29] = second compound 10 µM, first compound 3.16 µM
# [30] = second compound 10 µM, first compound 10 µM
# 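Further: spheroids exposed to agents for seven days before viability read.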
smiles,measurement,setting,value
CCc1c2c(nc3ccc(O)cc13)-c1cc3c(c(=O)n1C2)COC(=O)[C@]3(O)CC + Cc1ccccc1N=Nc1ccc(NC(=O)c2ccnn2C)c(C)c1,IC50,second compound 0.1 µM,3.21 nM
same,IC50,second compound 0.316 µM,2.48 nM
same,IC50,second compound 1 µM,1.88 nM
same,IC50,second compound 3.16 µM,1.25 nM
same,IC50,second compound 10 µM,1.44 nM
same,"viability, T/C","second compound 0.1 µM, first compound 0.000949 µM",62.4%
same,"viability, T/C","second compound 0.1 µM, first compound 0.003 µM",52%
same,"viability, T/C","second compound 0.1 µM, first compound 0.00949 µM",18.5%
same,"viability, T/C","second compound 0.1 µM, first compound 0.03 µM",15.2%
same,"viability, T/C","second compound 0.1 µM, first compound 0.0949 µM",16.2%
same,"viability, T/C","second compound 0.1 µM, first compound 0.3 µM",15.5%
same,"viability, T/C","second compound 0.316 µM, first compound 0.000949 µM",57.4%
same,"viability, T/C","second compound 0.316 µM, first compound 0.003 µM",48.5%
same,"viability, T/C","second compound 0.316 µM, first compound 0.00949 µM",17.1%
same,"viability, T/C","second compound 0.316 µM, first compound 0.03 µM",16.4%
same,"viability, T/C","second compound 0.316 µM, first compound 0.0949 µM",14.2%
same,"viability, T/C","second compound 0.316 µM, first compound 0.3 µM",16.1%
same,"viability, T/C","second compound 1 µM, first compound 0.000949 µM",52.4%
same,"viability, T/C","second compound 1 µM, first compound 0.003 µM",48.4%
same,"viability, T/C","second compound 1 µM, first compound 0.00949 µM",17.9%
same,"viability, T/C","second compound 1 µM, first compound 0.03 µM",12.9%
same,"viability, T/C","second compound 1 µM, first compound 0.0949 µM",15.8%
same,"viability, T/C","second compound 1 µM, first compound 0.3 µM",15.1%
same,"viability, T/C","second compound 3.16 µM, first compound 0.000949 µM",50.9%
same,"viability, T/C","second compound 3.16 µM, first compound 0.003 µM",47.9%
same,"viability, T/C","second compound 3.16 µM, first compound 0.00949 µM",14.9%
same,"viability, T/C","second compound 3.16 µM, first compound 0.03 µM",12.8%
same,"viability, T/C","second compound 3.16 µM, first compound 0.0949 µM",13.8%
same,"viability, T/C","second compound 3.16 µM, first compound 0.3 µM",15.4%
same,"viability, T/C","second compound 10 µM, first compound 0.000949 µM",52.3%
same,"viability, T/C","second compound 10 µM, first compound 0.003 µM",46%
same,"viability, T/C","second compound 10 µM, first compound 0.00949 µM",19.9%
same,"viability, T/C","second compound 10 µM, first compound 0.03 µM",12.9%
same,"viability, T/C","second compound 10 µM, first compound 0.0949 µM",14%
same,"viability, T/C","second compound 10 µM, first compound 0.3 µM",16.2%
Nc1ccn(C2OC(CO)C(O)C2(F)F)c(=O)n1 (stereo unspecified),"viability, T/C",compound 0.0316 µM,68.2% and 32.2% and 53.2%
same,"viability, T/C",compound 0.1 µM,98.7% and 26% and 26.2%
same,"viability, T/C",compound 0.316 µM,79.8% and 18.3% and 16.4%
same,"viability, T/C",compound 1 µM,79.5% and 19.9% and 15.4%
same,"viability, T/C",compound 3.16 µM,87.5% and 17.6% and 11.5%
same,"viability, T/C",compound 10 µM,87.3% and 11.4% and 10.1%
CC(C)c1c(-c2ccccc2)nc2c(C#N)c[nH]n2c1=O + CC(CO)NC(=O)c1cc(-c2ccc(Cl)cc2)nn(-c2cnn(C)c2)c1=O,IC50,second compound 0.1 µM,> 10000 nM
same,IC50,second compound 0.316 µM,> 10000 nM
same,IC50,second compound 1 µM,> 10000 nM
same,IC50,second compound 3.16 µM,> 10000 nM
same,IC50,second compound 10 µM,> 10000 nM
same,"viability, T/C",[1],110%
same,"viability, T/C",[2],115%
same,"viability, T/C",[3],88.1%
same,"viability, T/C",[4],87.2%
same,"viability, T/C",[5],92.5%
same,"viability, T/C",[6],88%
same,"viability, T/C",[7],94.7%
same,"viability, T/C",[8],98.9%
same,"viability, T/C",[9],92.8%
same,"viability, T/C",[10],78.8%
same,"viability, T/C",[11],88.5%
same,"viability, T/C",[12],81.2%
same,"viability, T/C",[13],87.5%
same,"viability, T/C",[14],88.1%
same,"viability, T/C",[15],87.4%
same,"viability, T/C",[16],76.5%
same,"viability, T/C",[17],89.2%
same,"viability, T/C",[18],75.8%
same,"viability, T/C",[19],73.4%
same,"viability, T/C",[20],76.4%
same,"viability, T/C",[21],71%
same,"viability, T/C",[22],64.4%
same,"viability, T/C",[23],63.4%
same,"viability, T/C",[24],60.9%
same,"viability, T/C",[25],65.4%
same,"viability, T/C",[26],67%
same,"viability, T/C",[27],64%
same,"viability, T/C",[28],57.9%
same,"viability, T/C",[29],54.9%
same,"viability, T/C",[30],56.5%
COc1ccc([C@@H](O)c2cc(-c3ncnc4cc(N5CCOCC5)ccc34)c(F)cc2Cl)nn1 + Cc1cncc(-c2nc(NCCc3c[nH]c4ccccc34)c3ncn(C(C)C)c3n2)c1,IC50,second compound 0.1 µM,8950 nM
same,IC50,second compound 0.316 µM,7370 nM
same,IC50,second compound 1 µM,> 10000 nM
same,IC50,second compound 3.16 µM,> 10000 nM
same,IC50,second compound 10 µM,< 31.6 nM
same,"viability, T/C",[1],152%
same,"viability, T/C",[2],91.7%
same,"viability, T/C",[3],96.2%
same,"viability, T/C",[4],89.5%
same,"viability, T/C",[5],63.5%
same,"viability, T/C",[6],51.4%
same,"viability, T/C",[7],116%
same,"viability, T/C",[8],125%
same,"viability, T/C",[9],81.6%
same,"viability, T/C",[10],94.9%
same,"viability, T/C",[11],81%
same,"viability, T/C",[12],38.1%
same,"viability, T/C",[13],137%
same,"viability, T/C",[14],112%
same,"viability, T/C",[15],119%
same,"viability, T/C",[16],86.1%
same,"viability, T/C",[17],79.2%
same,"viability, T/C",[18],64.2%
same,"viability, T/C",[19],108%
same,"viability, T/C",[20],80.2%
same,"viability, T/C",[21],86.3%
same,"viability, T/C",[22],69.8%
same,"viability, T/C",[23],43.4%
same,"viability, T/C",[24],58.5%
same,"viability, T/C",[25],3.67%
same,"viability, T/C",[26],4.08%
same,"viability, T/C",[27],3.62%
same,"viability, T/C",[28],2.73%
same,"viability, T/C",[29],3.64%
same,"viability, T/C",[30],3.08%
Nc1ccccc1NC(=O)c1ccc(CNC(=O)OCc2cccnc2)cc1 + Cc1cncc(-c2nc(NCCc3c[nH]c4ccccc34)c3ncn(C(C)C)c3n2)c1,IC50,second compound 0.1 µM,1740 nM
same,IC50,second compound 0.316 µM,4610 nM
same,IC50,second compound 1 µM,3440 nM
same,IC50,second compound 3.16 µM,4100 nM
same,IC50,second compound 10 µM,< 31.6 nM
same,"viability, T/C",[1],87.7%
same,"viability, T/C",[2],91%
same,"viability, T/C",[3],97.5%
same,"viability, T/C",[4],48.9%
same,"viability, T/C",[5],43.2%
same,"viability, T/C",[6],6.54%
same,"viability, T/C",[7],67.6%
same,"viability, T/C",[8],104%
same,"viability, T/C",[9],79.5%
same,"viability, T/C",[10],83.4%
same,"viability, T/C",[11],72.2%
same,"viability, T/C",[12],4.51%
same,"viability, T/C",[13],105%
same,"viability, T/C",[14],89.6%
same,"viability, T/C",[15],79.8%
same,"viability, T/C",[16],78.5%
same,"viability, T/C",[17],57.8%
same,"viability, T/C",[18],3.52%
same,"viability, T/C",[19],64.2%
same,"viability, T/C",[20],61%
same,"viability, T/C",[21],62.3%
same,"viability, T/C",[22],65.3%
same,"viability, T/C",[23],68.1%
same,"viability, T/C",[24],1.13%
same,"viability, T/C",[25],2.83%
same,"viability, T/C",[26],3.36%
same,"viability, T/C",[27],4.55%
same,"viability, T/C",[28],1.45%
same,"viability, T/C",[29],6%
same,"viability, T/C",[30],0.4%
CC[C@@]1(O)C(=O)OCc2c1cc1n(c2=O)Cc2cc3c(CN(C)C)c(O)ccc3nc2-1 + Cc1cncc(-c2nc(NCCc3c[nH]c4ccccc34)c3ncn(C(C)C)c3n2)c1,IC50,second compound 0.1 µM,> 100 nM
same,IC50,second compound 0.316 µM,> 100 nM
same,IC50,second compound 1 µM,> 100 nM
same,IC50,second compound 3.16 µM,> 100 nM
same,IC50,second compound 10 µM,< 0.316 nM
same,"viability, T/C","second compound 0.1 µM, first compound 0.000316 µM",108%
same,"viability, T/C","second compound 0.1 µM, first compound 0.001 µM",151%
same,"viability, T/C","second compound 0.1 µM, first compound 0.00316 µM",99.7%
same,"viability, T/C","second compound 0.1 µM, first compound 0.01 µM",117%
same,"viability, T/C",[1],83.3%
same,"viability, T/C",[2],102%
same,"viability, T/C","second compound 0.316 µM, first compound 0.000316 µM",70.6%
same,"viability, T/C","second compound 0.316 µM, first compound 0.001 µM",91.9%
same,"viability, T/C","second compound 0.316 µM, first compound 0.00316 µM",124%
same,"viability, T/C","second compound 0.316 µM, first compound 0.01 µM",93.2%
same,"viability, T/C",[7],77.8%
same,"viability, T/C",[8],93.5%
same,"viability, T/C","second compound 1 µM, first compound 0.000316 µM",116%
same,"viability, T/C","second compound 1 µM, first compound 0.001 µM",110%
same,"viability, T/C","second compound 1 µM, first compound 0.00316 µM",114%
same,"viability, T/C","second compound 1 µM, first compound 0.01 µM",93.4%
same,"viability, T/C",[13],87.6%
same,"viability, T/C",[14],96.9%
same,"viability, T/C","second compound 3.16 µM, first compound 0.000316 µM",97.8%
same,"viability, T/C","second compound 3.16 µM, first compound 0.001 µM",71.7%
same,"viability, T/C","second compound 3.16 µM, first compound 0.00316 µM",87.3%
same,"viability, T/C","second compound 3.16 µM, first compound 0.01 µM",90.9%
same,"viability, T/C",[19],79%
same,"viability, T/C",[20],79.4%
same,"viability, T/C","second compound 10 µM, first compound 0.000316 µM",5.23%
same,"viability, T/C","second compound 10 µM, first compound 0.001 µM",3.61%
same,"viability, T/C","second compound 10 µM, first compound 0.00316 µM",4.43%
same,"viability, T/C","second compound 10 µM, first compound 0.01 µM",3.43%
same,"viability, T/C",[25],3.79%
same,"viability, T/C",[26],10.3%

# From PubChem BioAssay AID1918995 (Molecular Pharmacology Branch, DTP, NCI, 2023)
